Results taken from patent US10782294B2, “Peptides derived from myosin 19 and methods of use thereof” (TECHNION RESEARCH & DEVELOPMENT FOUNDATION LIMITED, priority 2014, dated 2020).
“Also recorded” adds a separate entry of the source. Read-outs that look alike come from different tables or passages of the source.

Experiments:
[1] = system: Myo19-eGFP expressing U2OS cells; test: Myo19 foci formation / translocation to cell periphery in Myo19-eGFP expressing cells treated with cytoskeleton interfering drugs; type: cell-based
Description: Cells were rinsed once and incubated in starvation medium (Glucose free DMEM supplemented with 20 mM Hepes-KOH pH 7.4, 5 mg/ml BSA, 100 U/ml penicillin, 100 μg/ml streptomycin and 0.25 μg/ml amphotericin B). Cytoskeleton interfering drugs (final concentration: 0.2 μM Latrunculin B or 0.75 μg/ml Nocodazole) were first diluted in growth media and then added to the cells.
(§1) Transfections were performed using Polyethylenimine (PEI). Adherent U2OS cells were plated a day before transfection on plastic or glass bottom dishes and allowed to adhere overnight (ON). Plasmid DNA and PEI were diluted separately in 150 mM NaCl, combined and complex formation was allowed for 25 min at RT before addition to the cells and incubation ON. Hoechst 33342 (0.75 μg/ml Sigma), MitoTracker (30 nM, Molecular probes) and Propidium iodide (1 μg/ml, Sigma) were added 15 min prior to imaging. HaloTag constructs were stained by incubating the cells with HaloTag TMR Ligand ON (25 nM, Promega). The cells were imaged using InCell Analyzer 2000, Confocal Zeiss LSM 700 or Confocal Zeiss LSM 710 in an environmental chamber.
Mitochondria function as an intracellular biosensor that responds to environmental changes, stress cues and physiological stimuli. Therefore, it is essential to test the function of myosin 19 and its relation to mitochondrial distribution and morphology in cells under starvation conditions as well under drugs, which disrupt cytoskeletal structures. Starvation stress was chosen because it strongly shifts mitochondrial dynamics of fission and fusion, inducing hyperfusion of the mitochondrial network, and that fission and fusion depend on force generation on the mitochondria. Therefore, it was assessed whether or not starvation-induced hyperfusion is accompanied by any differential cellular localization of myosin 19. Myosin 19-eGFP was overexpressed and cells were starved for four hrs. […] The inventors further tested if myosin 19 OMM binding motif is essential for this starvation-induced localization (FIG. 3A, middle two panels). […] This lends further support to the interpretation that myosin 19^Δ860-890-eGFP cannot compete with the endogenous myosin 19 because of its inability to bind the mitochondria. The inventors further assessed whether this transition of myosin 19 to the cell periphery requires myosin 19 motor activity utilizing an overexpression of myosin 19 tail (FIG. 3A, bottom two panels, FIG. 8) and an ATPase dead mutant G 135R (FIG. 9, FIG. 8). […] Indeed, pre-treatment of cells with 0.2 μM Latrunculin B that disrupts actin filaments of the cytoskeleton for 30 min inhibited the starvation-induced translocation of myosin 19 and the mitochondria to the cell periphery (FIG. 3B, FIG. 10). […]

[2] = target: lipid SUVs with a phospholipid composition similar to the OMM (55% PC, 30% PE, 13% PI, 2% DOPS); test: Equilibrium binding of peptides to OMM mimicking vesicles by fluorescence anisotropy
Description: (§2) Phosphatidylcholine (PC, Sigma), Phosphatidylethanolamine (PE, Sigma), Phosphatidylinositol (PI, Sigma) and Dioleoyl phosphatidylserine (DOPS, Avanti) were mixed in chloroform and evaporated under nitrogen. The vesicles were then resuspended in 40 mM Hepes pH 7.1, 150 mM NaCl and subjected to 10 freeze-thaw cycles in liquid nitrogen and kept in −80° C. The vesicles were thawed and sonicated for five min at low intensity; insoluble material was removed by centrifugation at 100,000×gav for 20 min. Vesicles were used within two days after sonication.
(§3) Equilibrium binding by Fluorescence Anisotropy (FA) measurements was performed with PCI spectrofluorimeter (ISS, Champaign, Ill.) designed as T-format for simultaneous acquisition on two emission channel monochromators equipped with automatic polarizers. Samples were equilibrated (60 min, RT) and then measurements were done with intrinsic fluorescence of the peptide with λex=280 nm using vertical polarized light and the emitted vertical and horizontal polarized light was monitored at 90° with double emission monochromators at λem=325 nm. (i-factor for correction of the different gain between the dual PMT detectors was calculated as described by the instrument manufacturer. The binding model for a simple bimolecular reaction was:
[formula] [formula] Under the condition of Ptot<<KD then the general solution for this equilibrium binding scheme is in the form of the following quadratic equation:
[formula] Ptot is monitoring species; Vtot is titrating species and [PV] is the bound species. The total fluorescence and anisotropy were fitted globally (Origin Lab 9.0) according to Otto et al. Biophys J, 1994. 67(6): p. 2511-21.
Myo19 peptides were purchased as crude preparations and resuspended in 10% Acetonitrile (ACN) and either 0.1% (for Myo19^851-895) or 0.01% (for Myo19^858-883 and Myo19^858-RK883SS) trifluoroacetic acid (TFA). The peptides were then loaded on a C-18 column (Waters) and separated by reverse phase chromatography. Peaks were analyzed by MALDI-TOF and verified to be of the right molecular weight corresponding to the peptide size. The peptides were then dried and resuspended in either 5% DMF (Myo19^858-883 and Myo19^RK883SS) or 16% DMF (Myo19^851-895) in binding buffer (40 mM Hepes pH 7.1, 150 mM NaCl). Myo19^851-895, Myo19^858-883, Myo19^858-RK883SS peptides were from GL Biochem (Shanghai, China). Zeta1 was from Sigma (Saint Louis, Mo., USA).
To characterize Myo19 membrane binding motif, the binding of a synthetic peptide representing Myo19 residues 851-895 (SEQ ID NO: 12, Table 3) to lipid SUVs (Small unilamellar vesicles) with a phospholipid composition similar to the OMM (55% PC, 30% PE, 13% PI, 2% DOPS (de Kroon et al., 1997)) was tested. Binding was followed via fluorescence anisotropy (FA) relying on two tryptophan residues that are present in the peptide. […] Equilibrium binding of Myo19 peptide to vesicles was monitored by titrating peptide versus increasing vesicles concentration. […] Therefore, to account for the FTI change during the FA measurements, global fitting to both signals arising from peptide binding to vesicles to compensate for the change in fluorescence yield during FA measurements was applied. […] In-vitro binding of a hydrophilic peptide Zeta1 (SEQ ID NO:15, Table 3), was much weaker (˜2.5 folds) compared to the Myo19 peptide (124.4±18.7 μM), supporting the notion that Myo19-OMM binding is mediated by hydrophobic interactions (FIG. 23). Although our newly identified membrane motif is essential and sufficient for OMM localization in cells, the cellular specificity may be achieved by unique, yet unidentified cytosolic or others mitochondrial components.

[3] = target: ER mimicking vesicles (20% PE, 66 & PC, 9% PI, 3% DOPS); test: Equilibrium binding of peptides to ER mimicking vesicles by fluorescence anisotropy; details: FA/FTI global fit; peptide concentrations 4 μM; N=1; read-out: affinity to ER mimicking vesicles
Description: as §2, §3
[formula] […]

[4] = system: mitochondria (MitoTracker) or ER; test: Colocalization of eGFP-fused myosin 19 tail constructs with mitochondria (MitoTracker) or ER (SRβ); type: cell-based; details: myosin 19^824-970-eGFP and mutant variants ectopically expressed
Description: Generation of peGFP-myosin 19 mutations and truncations were performed using high fidelity PCR enzymes with phosphorylated primers (Phusion, T4 PNK, NEB). We used peGFP-myosin 19 (peGFP-N1b was kindly provided by Dr. Ayoub (Technion-IIT)) or peGFP-myosin 19 tail (aa 824-970) as template with a single exception for peGFP-myosin 19^860-890 where peGFP-myosin 19^860-970 was used. The products were ligated using T4 ligase (NEB, Promega) and sequenced.
as §1
In accordance to the finding in the cells (FIG. 2A), Myo19^860-890-eGFP was co-purified with mitochondria, however unlike the endogenous Myo19, it appears to be more sensitive to extraction by salt. Carbonate completely extracts Myo19^860-890-eGFP from purified mitochondria, similarly to endogenous Myo19 (FIG. 22). The difference in salt sensitivity may be due to insufficient length of the motif to be fully anchored in the membrane as in the WT endogenous protein. Another possibility is that a certain part of Myo19^860-890-eGFP was correctly anchored, where the rest was present there nonspecifically, e.g. through dimerization of eGFP. […] To further explore the OMM targeting the motif sequence was examined. Although there is no consensus sequence targeting proteins to the OMM, it was shown that a moderately hydrophobic motif flanked by positive residues is required for OMM localization. […]

[5] = FA/FTI global fit, peptide concentrations 4 μM, N=1, read-out: affinity to OMM mimicking vesicles

## C/C1=C/C(=O)O[C@@H]2C[C@@H](CC[C@H](C)/C=C\CC1)O[C@@](O)([C@@H]1CSC(=O)N1)C2 [Latrunculin B]
[1]; 0.2 μM latrunculin B 30 min prior to starvation
  cells showing <2 Myo19 foci: < 30 % of the cells
[1]; 0.2 μM, 30 min pre-treatment, then starvation
  starvation-induced translocation of myosin 19 and the mitochondria to the cell periphery: inhibited

## COC(=O)Nc1nc2ccc(C(=O)c3cccs3)cc2[nH]1 [nocodazole]
[1]; 0.75 μg/ml nocodazole for three hrs, no starvation
  localization of myosin 19 and mitochondria after nocodazole treatment: induced the same altered localization
[1]; nocodazole treatment, complete media conditions
  cells with induced Myo19 foci formation: > 80 % of the cells

## EAIIRLWPLGLVLANTAMGVGSFQRK [Myo19^858-883, shorter peptide derived from Myo19 membrane motif]
[2]; [5]
  Kd: 45 ± 14.1 µM
[3]
  Kd: 50.5 ± 22 µM

## EAIIRLWPLGLVLANTAMGVGSFQSS [Myo19^858-RK882/3SS, corresponding ER mutant of the shorter Myo19 peptide]
[2]; [5]
  Kd: 49 ± 17.2 µM

## FRWGKPVGKKRRPVKVYPNGAEDESAEAFPLE [Zeta1, reference compound]
[2]; [5]
  Kd: 124 ± 18.7 µM
[2]; Zeta1 versus Myo19 peptide
  binding weaker compared to the Myo19 peptide: ~2.5 folds

## IIRL*WPLGLVLANTAMGVGSF*QSSLVVWACL (IIRLWPLGLVLANTAMGVGSFQSSLVVWACL) [RK882/3SS, myosin 19 tail-eGFP construct with R882S and K883S in combination]
[4]; listed as SEQ ID NO: 10
  Localization: shift of the intracellular localization of Myo19 to the ER

## IIRL*WVLGLVLANTAMGVGSF*QRKLVVWACL (IIRLWVLGLVLANTAMGVGSFQRKLVVWACL) [Peptide P865V, myosin 19 tail-eGFP construct with point mutation P865V]
[4]
  Localization: dual localization to both the ER and the mitochondria; also recorded: ER/Mito-

## PLQTRLLEAIIRLWPLGLVLANTAMGVGSFQRKLVVWACLQLPRG [Myo19^851-895, synthetic peptide representing Myo19 residues 851-895]
[2]; [NaCl] up to 1 M, peptide and vesicles 35 μM each
  effect of [NaCl] on the magnitude of binding to vesicles: no effect
[2]; global fit of FA and FTI, peptide concentration 35 μM, 40 mM Hepes pH 7.1, 150 mM NaCl, read-out: apparent binding constant KD
  Kd: 281 ± 50 µM

B1: IIRL*WPLGLVLANTAMGVGSF*QRKLVVWACL (protein, UniProt Q96H55 824-970, looked up, fragment)
chain: MACLAAKELDGVEEKHFSQAPCSLSTSPLQTRLLEAIIRLWPLGLVLANTAMGVGSFQRKLVVWACLQLPRGSPSSYTVQTAQDQAGVTSIRALPQGSIKFHCRKSPLRYADICPEPSPYSITGFNQILLERHRLIHVTSSAFTGLG
modifications: eGFP fusion
[4]
  Localization: Mito-
